How the values were obtained:
[1] = 101.3 kPa, Liquid mixture 1
[2] = xn = mol fraction of the nth substance listed; settings: for mass density: Liquid; for surface tension liquid-gas: Pendant drop shape

CN1CCCC1=O [N-methylpyrrolidone] + CCCCCCC
[1]
Settings | interfacial tension [mN/m]
297.76 K | 1.202
302.78 K | 0.93
307.81 K | 0.68
312.84 K | 0.45
317.79 K | 0.24
320.65 K | 0.137
322.8 K | 0.079
323.75 K | 0.055
324.8 K | 0.033
325.43 K | 0.019
325.81 K | 0.012
326.1 K | 0.009

CN(C)C=O [dimethylformamide] + CCCCCCC
[1]
Settings | interfacial tension [mN/m]
297.83 K | 2.49
302.83 K | 2.19
307.85 K | 1.87
312.85 K | 1.59
317.86 K | 1.26
322.86 K | 0.93
327.88 K | 0.66
332.88 K | 0.42
334.87 K | 0.302
336.86 K | 0.213
337.88 K | 0.169
338.88 K | 0.122
339.87 K | 0.086
340.87 K | 0.042
341.25 K | 0.032
341.88 K | 0.02
342.18 K | 0.011

Cc1ccccc1 [toluene] + CC(C)=O
[2], x1 = 1
Settings | mass density [kg/m3] | surface tension liquid-gas [mN/m]
283.15 K | 875.9 | –
287.81 K | – | 28.93
288.15 K | 871.4 | –
293.15 K | 866.9 | –
297.82 K | – | 27.76
298.15 K | 862.4 | –
303.15 K | 857.8 | –
307.86 K | – | 26.6
308.15 K | 853.2 | –
313.15 K | 848.6 | –
317.86 K | – | 25.46
318.15 K | 843.9 | –
323.15 K | 839.2 | –
327.88 K | – | 24.29
328.15 K | 834.5 | –
333.15 K | 829.8 | –

CC(C)=O [acetone] + C1CCCCC1
[2]
Settings | mass density, 288.15 K [kg/m3] | mass density, 298.15 K [kg/m3] | mass density, 308.15 K [kg/m3] | mass density, 318.15 K [kg/m3] | surface tension liquid-gas, 287.81 K [mN/m] | surface tension liquid-gas, 297.82 K [mN/m] | surface tension liquid-gas, 307.86 K [mN/m] | surface tension liquid-gas, 317.86 K [mN/m]
x2 = 0 | 798.2 | 787 | 775.4 | 762.5 | 23.94 | 22.78 | 21.59 | 20.33
x2 = 0.1002 | 790 | 779.7 | 768.4 | 756.9 | 23.54 | 22.25 | 21.03 | 19.91
x2 = 0.2001 | 786.6 | 775.3 | 764.2 | 753 | 23.19 | 22.02 | 20.78 | 19.63
x2 = 0.2993 | 783.2 | 772.3 | 761.4 | 750.2 | 23.23 | 22.02 | 20.82 | 19.63
x2 = 0.3979 | 781.1 | 769.7 | 759.6 | 748.6 | 23.33 | 22.08 | 20.89 | 19.7
x2 = 0.4964 | 779.7 | 769.2 | 758.6 | 747.8 | 23.58 | 22.22 | 21.14 | 20
x2 = 0.6 | 778.9 | 768.6 | 758.2 | 747.6 | 23.91 | 22.53 | 21.35 | 20.3
x2 = 0.6975 | 778.9 | 768.7 | 759.9 | 748.3 | 24.31 | 22.84 | 21.6 | 20.56
x2 = 0.7993 | 779.4 | 769.5 | 759.6 | 749.6 | 24.69 | 23.24 | 22.08 | 21.04
x2 = 0.8994 | 780.7 | 771.1 | 761.4 | 751.6 | 25.12 | 23.82 | 22.58 | 21.46

CCCCCCC [heptane] + C1CCCCC1
[2], x2 = 0
Settings | mass density [kg/m3] | surface tension liquid-gas [mN/m]
283.15 K | 692.2 | –
287.81 K | – | 20.7
288.15 K | 688 | –
293.15 K | 683.8 | –
297.82 K | – | 19.63
298.15 K | 679.5 | –
303.15 K | 675.2 | –
307.86 K | – | 18.68
308.15 K | 670.9 | –
313.15 K | 666.5 | –
317.86 K | – | 17.76
318.15 K | 662.1 | –
323.15 K | 657.7 | –
327.88 K | – | 16.68
328.15 K | 653.2 | –
333.15 K | 648.7 | –

C1CCCCC1 [cyclohexane] + CC(C)=O
[2], x1 = 1
Settings | mass density [kg/m3] | surface tension liquid-gas [mN/m]
287.81 K | – | 25.34
288.15 K | 783.2 | –
297.82 K | – | 24.2
298.15 K | 773.9 | –
307.86 K | – | 23.02
308.15 K | 764.4 | –
317.86 K | – | 21.84
318.15 K | 754.8 | –

CCCCCCCCCC [decane] + CN(C)C=O
[1]
Settings | interfacial tension [mN/m]
292.78 K | 3.78
297.77 K | 3.41
302.79 K | 3.1
307.81 K | 2.72
312.79 K | 2.4
317.8 K | 2.09
322.78 K | 1.82
327.81 K | 1.53
332.81 K | 1.24
337.76 K | 0.95
342.78 K | 0.69
346.8 K | 0.48
348.32 K | 0.37
350.11 K | 0.32
352.77 K | 0.19
353.65 K | 0.15
354.76 K | 0.105
355.31 K | 0.083
355.62 K | 0.07
356.15 K | 0.056
356.72 K | 0.035
357.15 K | 0.019
357.45 K | 0.012

— the NIST ThermoML archive (doi:10.1021/je034062r)
